Experimental data from ChEMBL document CHEMBL1909294, “Translating clinical findings into knowledge in drug safety evaluation--drug induced liver injury prediction system (DILIps)” (PLoS Comput Biol, 2011).
Structures can show the parent of a compound that is named as a salt.

test system: Hepatotoxicity; conditions: not given
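Also: binary label assigned from drug-induced liver injury observed in pharmaceutical company records, forming the validation set for the DILIps prediction system.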

Row | Compound | DILI positive/negative
1 | CC(=O)OCC1=C(C(=O)[O-])N2C(=O)[C@@H](NC(=O)Cc3cccs3)[C@H]2SC1.[Na+] [CEPHALOTHIN SODIUM] | 1
2 | CC(=O)CC(c1ccc([N+](=O)[O-])cc1)c1c(O)c2ccccc2oc1=O (configuration not stated) [ACENOCOUMAROL] | 1
3 | CCO[C@@H](Cc1ccc(OCCN2c3ccccc3Oc3ccccc32)cc1)C(=O)O [RAGAGLITAZAR] | 0
4 | CN(C)CCn1nnnc1SCC1=C(C(=O)O)N2C(=O)[C@@H](NC(=O)Cc3csc(N)n3)[C@H]2SC1.Cl.Cl [CEFOTIAM HYDROCHLORIDE] | 1
5 | AUROTHIOGLUCOSE | 1
6 | S=C=Nc1cccc2ccccc12 [1-NAPHTHYLISOTHIOCYANATE] | 1
7 | COC(=O)C1=C(C)NC(C)=C(C(=O)OCC(C)C)C1c1ccccc1[N+](=O)[O-] (configuration not stated) [NISOLDIPINE] | 0
8 | Br.COc1ccc2c(c1)[C@]13CCCC[C@@H]1[C@H](C2)N(C)CC3.O [DEXTROMETHORPHAN HYDROBROMIDE] | 0
9 | COc1cc(CNC(=O)CCCC/C=C/C(C)C)ccc1O [CAPSAICIN] | 0
10 | CO[C@@]1(NC(=O)C(C(=O)[O-])c2ccc(O)cc2)C(=O)N2C(C(=O)[O-])=C(CSc3nnnn3C)CO[C@@H]21.[Na+].[Na+] (some centres not stated) [MOXALACTAM DISODIUM] | 0
11 | CN(C)CCC(c1ccc(Br)cc1)c1ccccn1.O=C(O)/C=C\C(=O)O (configuration not stated) [BROMPHENIRAMINE MALEATE] | 0
12 | COc1ccc2[nH]cc(CCNC(C)=O)c2c1 [MELATONIN] | 0
13 | COc1cccc(OC)c1C(=O)N[C@@H]1C(=O)N2[C@@H]1SC(C)(C)[C@@H]2C(=O)[O-].[Na+] | 1
14 | Cc1onc(-c2ccccc2Cl)c1C(=O)N[C@@H]1C(=O)N2[C@@H]1SC(C)(C)[C@@H]2C(=O)[O-].O.[Na+] [CLOXACILLIN SODIUM] | 1
15 | CC(N)C(O)c1ccccc1.Cl (configuration not stated) [PHENYLPROPANOLAMINE HYDROCHLORIDE] | 0
16 | CCCCNc1ccc(C(=O)OCCN(C)C)cc1.Cl [TETRACAINE HYDROCHLORIDE] | 0
17 | C[C@H](CCC(=O)O)[C@H]1CC[C@H]2[C@@H]3[C@H](O)C[C@@H]4C[C@H](O)CC[C@]4(C)[C@H]3CC[C@]12C [CHENODIOL] | 1
18 | CN[C@@H](C)[C@@H](O)c1ccccc1.Cl [PSEUDOEPHEDRINE HYDROCHLORIDE] | 0
19 | CN(C)[C@@H]1C(O)=C(C(N)=O)C(=O)[C@@]2(O)C(O)=C3C(=O)c4c(O)ccc(Cl)c4[C@@](C)(O)[C@H]3C[C@@H]12.Cl [CHLORTETRACYCLINE HYDROCHLORIDE] | 1
20 | CC(=O)Nc1ccc2c(c1)Cc1ccccc1-2 [2-ACETYLAMINOFLUORENE] | 1
21 | CC1(COc2ccc(CC3SC(=O)NC3=O)cc2)CCCCC1 (configuration not stated) [CIGLITAZONE] | 1
22 | C=CC(O)CC#N (configuration not stated) | 0
23 | CC[C@]1(O)C[C@@H]2CN(CCc3c([nH]c4ccccc34)[C@@](C(=O)OC)(c3cc4c(cc3OC)N(C)[C@H]3[C@@](O)(C(=O)OC)[C@H](OC(C)=O)[C@]5(CC)C=CCN6CC[C@]43[C@@H]65)C2)C1.O=S(=O)(O)O [VINBLASTINE SULFATE] | 0
24 | C[C@@H](CO)NC(=O)[C@@H]1C=C2c3cccc4[nH]cc(c34)C[C@H]2N(C)C1.O=C(O)/C=C\C(=O)O [ERGONOVINE MALEATE] | 0

Row | Compound | DILI positive/negative
25 | Cl.O=C(O)CCCCCCNC1c2ccccc2CCc2ccccc21 [AMINEPTINE HYDROCHLORIDE] | 1
26 | C=C1CC[C@@]2(O)[C@H]3Cc4ccc(O)c5c4[C@@]2(CCN3CC2CC2)[C@H]1O5 | 0
27 | C=C1CC[C@H](O)C/C1=C/C=C1\CCC[C@]2(C)[C@@H]([C@H](C)CCCC(C)(C)O)CC[C@@H]12.O [CALCIFEDIOL] | 1
28 | Cc1ccc2cc3c(ccc4ccccc43)c3c2c1CC3 [3-METHYLCHOLANTHRENE] | 1
29 | CC1(C)[C@@H](OC(=O)CCC(=O)[O-])CC[C@]2(C)[C@H]3C(=O)C=C4[C@@H]5C[C@@](C)(C(=O)[O-])CC[C@]5(C)CC[C@@]4(C)[C@]3(C)CC[C@@H]12.[Na+].[Na+] [CARBENOXOLONE SODIUM] | 0
30 | O=C1NC(=O)C(O)(O)C(=O)N1 | 0
31 | COCC(=O)O[C@]1(CCN(C)CCCc2nc3ccccc3[nH]2)CCc2cc(F)ccc2[C@@H]1C(C)C [MIBEFRADIL] | 0
32 | CCN1CCN(C(=O)N[C@@H](C(=O)N[C@@H]2C(=O)N3C(C(=O)O)=C(CSc4nnnn4C)CS[C@H]23)c2ccc(O)cc2)C(=O)C1=O.O.O [CEFOPERAZONE DIHYDRATE] | 0
33 | Cc1cc(CC(=O)O)n(C)c1C(=O)c1ccc(Cl)cc1 [ZOMEPIRAC] | 0
34 | BISMUTH SUBSALICYLATE | 0
35 | C#C[C@]1(O)CC[C@H]2[C@@H]3CCc4cc(O)ccc4[C@H]3CC[C@@]21C [ETHINYL ESTRADIOL] | 1
36 | CCC1(c2ccccc2)C(=O)NC(=O)N(C)C1=O (configuration not stated) [MEPHOBARBITAL] | 1
37 | CCOc1ccc(NC(C)=O)cc1 [PHENACETIN] | 1
38 | CN(C)CCN(Cc1ccccc1)c1ccccn1.Cl [TRIPELENNAMINE HYDROCHLORIDE] | 1
39 | C[C@]12CC[C@@H]3c4ccc(O)cc4CC[C@H]3[C@@H]1CCC2=O [ESTRONE] | 1
40 | Cn1nnnc1SCC1=C(C(=O)[O-])N2C(=O)[C@@H](NC(=O)[C@H](O)c3ccccc3)[C@H]2SC1.[Na+] [CEFAMANDOLE SODIUM] | 1
41 | O=C(O)c1ccncc1 [ISONICOTINIC ACID] | 0
42 | Cc1cc(NC(=O)C2=C(O)c3ccccc3S(=O)(=O)N2C)no1 [ISOXICAM] | 0
43 | C=C1[C@@H]2CCC3[C@@](CC[C@@H]4[C@H](C(=O)O)C[C@@H](O[C@@H]5O[C@H](CO)[C@@H](OS(=O)(=O)[O-])[C@H](OS(=O)(=O)[O-])[C@H]5OC(=O)CC(C)C)C[C@@]34C)(C2)[C@@H]1O.[K+].[K+] (some centres not stated) [ATRACTYLOSIDE] | 1
44 | FERROUS SULFATE | 0
45 | CC(=O)OCC1=C(C(=O)[O-])N2C(=O)[C@@H](NC(=O)CSc3ccncc3)[C@H]2SC1.[Na+] [CEPHAPIRIN SODIUM] | 0
46 | O=C1O[C@H]([C@@H](O)CO)C(O)=C1O [ASCORBIC ACID] | 0
47 | Brc1ccccc1 [BROMOBENZENE] | 1
48 | C=CCOC=O [ALLYL FORMATE] | 1

Row | Compound | DILI positive/negative
49 | CN1CCN(C(c2ccccc2)c2ccccc2)CC1 [CYCLIZINE] | 1
50 | CCOC(=O)C1(c2ccccc2)CCN(CCC(C#N)(c2ccccc2)c2ccccc2)CC1.Cl [DIPHENOXYLATE HYDROCHLORIDE] | 0
51 | c1ccc2c(c1)Nc1ccccc1S2 [PHENOTHIAZINE] | 1
52 | CC[N+](CC)(CC)CCOc1cccc(OCC[N+](CC)(CC)CC)c1OCC[N+](CC)(CC)CC.[I-].[I-].[I-] [GALLAMINE TRIETHIODIDE] | 0
53 | CC[N+](C)(C)c1cccc(O)c1.[Cl-] [EDROPHONIUM CHLORIDE] | 0
54 | N[C@H](C(=O)O)[C@@H]1CC(Cl)=NO1 [ACIVICIN] | 0
55 | C#C[C@]1(OC(C)=O)CC[C@H]2[C@@H]3CCC4=C[C@@H](OC(C)=O)CC[C@@H]4[C@H]3CC[C@@]21C [ETHYNODIOL DIACETATE] | 1
56 | Cl.Nc1ccc(/N=N/c2ccccc2)c(N)n1 [PHENAZOPYRIDINE HYDROCHLORIDE] | 1
57 | C=CCO [ALLYL ALCOHOL] | 1
58 | CC1(c2ccccc2)Cc2cc(OCC(=O)O)c(Cl)c(Cl)c2C1=O (configuration not stated) [INDACRINONE] | 1
59 | Nc1ccc(C(=O)[O-])cc1.[K+] [AMINOBENZOATE POTASSIUM] | 0
60 | Cl.Cl.O=C(CCN1CCN2CCCC2C1)N1c2ccccc2Sc2ccc(Cl)cc21 (configuration not stated) [AZACLORZINE HYDROCHLORIDE] | 1
61 | CC1(C)S[C@@H]2[C@H](NC(=O)[C@H](NC(=O)N3CCNC3=O)c3ccccc3)C(=O)N2[C@H]1C(=O)[O-].[Na+] [AZLOCILLIN SODIUM] | 0
62 | LACTOSE, ANHYDROUS | 0
63 | Cl.Nc1cc(Cl)cc(Cl)c1 | 0
64 | CN1CCC(=C2c3ccccc3CCc3cccnc32)CC1.O=C(O)/C=C\C(=O)O.O=C(O)/C=C\C(=O)O [AZATADINE MALEATE] | 1
65 | COc1ccc(OC)c(C(O)C(C)N)c1.Cl (configuration not stated) [METHOXAMINE HYDROCHLORIDE] | 0
66 | CCC1(c2ccccc2)CCC(=O)NC1=O (configuration not stated) [GLUTETHIMIDE] | 1
67 | CCOC(=O)C1(c2ccccc2)CCN(CCc2ccc(N)cc2)CC1.Cl [ANILERIDINE HYDROCHLORIDE] | 0
68 | CN(CCCCCCCCCCN(C)C(=O)Oc1cccc([N+](C)(C)C)c1)C(=O)Oc1cccc([N+](C)(C)C)c1.[Br-].[Br-] [DEMECARIUM BROMIDE] | 1
69 | CN1C(=O)OC(C)(C)C1=O [TRIMETHADIONE] | 1
70 | CN1CCN2c3ccccc3Cc3ccccc3C2C1 (configuration not stated) [MIANSERIN] | 1
71 | CCCCC(CC)COC(=O)C=Cc1ccc(OC)cc1 (configuration not stated) [OCTINOXATE] | 1

same assay, conditions: Liver

Row | Compound | DILI positive/negative
72 | C#CC1(O)CC[C@H]2[C@@H]3CCC4=CC(=O)CC[C@@H]4[C@H]3CC[C@@]21CC (some centres not stated) [NORGESTREL] | 1
73 | CC1(C)S[C@@H]2[C@H](NC(=O)[C@H](NC(=O)N3CCN(S(C)(=O)=O)C3=O)c3ccccc3)C(=O)N2[C@H]1C(=O)[O-].[Na+] [MEZLOCILLIN SODIUM] | 1
74 | Nc1ncn([C@@H]2O[C@H](CO)[C@@H](O)[C@H]2O)c(=O)n1 [AZACITIDINE] | 1
75 | CCN(CC)Cc1cc(Nc2ccnc3cc(Cl)ccc23)ccc1O.Cl.Cl.Cl | 1
76 | Cl.Cl.OCCN1CCN(CC/C=C2/c3ccccc3Sc3ccc(C(F)(F)F)cc32)CC1 | 0
77 | O=S(=O)(O)O.Oc1cccc2cccnc12.Oc1cccc2cccnc12 [OXYQUINOLINE SULFATE] | 1
